From PMC8231170, “Biphenylalkoxyamine Derivatives–Histamine H3 Receptor Ligands with Butyrylcholinesterase Inhibitory Activity” (Molecules, 2021)
Counter-ions that a name gives are not always drawn. Like-named read-outs stand apart in the source and are kept apart here. Marks after values point to notes of the source that are not given here.

Assays:
human MAO B = target: T1, human MAO B (Homo sapiens, UniProt P27338); assay: fluorometric Monoamine Oxidase assay; format: biochemical; settings: at 1 μM; read-out: hMAO B %Inh. (converted)
T1 construct: purchased Sigma Aldrich M7441
T1 sequence (P27338 1-520): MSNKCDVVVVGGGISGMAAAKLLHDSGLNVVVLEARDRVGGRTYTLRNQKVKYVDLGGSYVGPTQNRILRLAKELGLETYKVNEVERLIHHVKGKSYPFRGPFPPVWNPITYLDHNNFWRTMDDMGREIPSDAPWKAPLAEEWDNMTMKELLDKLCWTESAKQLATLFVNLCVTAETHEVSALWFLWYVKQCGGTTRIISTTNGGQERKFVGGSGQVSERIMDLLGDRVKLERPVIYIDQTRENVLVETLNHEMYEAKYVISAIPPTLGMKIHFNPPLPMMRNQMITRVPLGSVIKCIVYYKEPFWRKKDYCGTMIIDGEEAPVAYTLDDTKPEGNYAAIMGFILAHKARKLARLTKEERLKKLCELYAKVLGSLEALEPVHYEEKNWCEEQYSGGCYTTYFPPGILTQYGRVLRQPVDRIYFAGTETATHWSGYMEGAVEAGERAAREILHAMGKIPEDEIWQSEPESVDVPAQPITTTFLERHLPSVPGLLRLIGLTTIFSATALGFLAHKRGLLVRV
Protocol: Inhibition of human MAO B (hMAO B) was evaluated using a fluorometric Monoamine Oxidase assay as we described previously.
Inhibition of hMAO B was evaluated using fluorometric Monoamine Oxidase assay as described by Łażewska et al.. Recombinant MAO B was purchased from Sigma Aldrich (M7441). […] The assay was carried out in 96-well plate. Tested compounds dissolved in DMSO (1 μM) were added to wells that contained 98 µL of enzyme dilution (1 µg/well) in phosphate buffer (50 mM, pH 7.4). […] An enzymatic reaction started following addition of para-tyramine solution (200 μM). […] Each experiment was performed in duplicate.

AChE from electric eel [1] = target: T2, AChE from electric eel (Electrophorus electricus, UniProt O42275); assay: eeAChE inhibition, Ellman's method; format: biochemical; settings: for inhibition at 10 µM: read-out: eeAChE % Inh.
T2 construct: AChE was obtained from electric eel and BuChE from equine serum; purchased Sigma Aldrich; host or cells: electric eel (natural source)
T2 sequence (O42275 24-633): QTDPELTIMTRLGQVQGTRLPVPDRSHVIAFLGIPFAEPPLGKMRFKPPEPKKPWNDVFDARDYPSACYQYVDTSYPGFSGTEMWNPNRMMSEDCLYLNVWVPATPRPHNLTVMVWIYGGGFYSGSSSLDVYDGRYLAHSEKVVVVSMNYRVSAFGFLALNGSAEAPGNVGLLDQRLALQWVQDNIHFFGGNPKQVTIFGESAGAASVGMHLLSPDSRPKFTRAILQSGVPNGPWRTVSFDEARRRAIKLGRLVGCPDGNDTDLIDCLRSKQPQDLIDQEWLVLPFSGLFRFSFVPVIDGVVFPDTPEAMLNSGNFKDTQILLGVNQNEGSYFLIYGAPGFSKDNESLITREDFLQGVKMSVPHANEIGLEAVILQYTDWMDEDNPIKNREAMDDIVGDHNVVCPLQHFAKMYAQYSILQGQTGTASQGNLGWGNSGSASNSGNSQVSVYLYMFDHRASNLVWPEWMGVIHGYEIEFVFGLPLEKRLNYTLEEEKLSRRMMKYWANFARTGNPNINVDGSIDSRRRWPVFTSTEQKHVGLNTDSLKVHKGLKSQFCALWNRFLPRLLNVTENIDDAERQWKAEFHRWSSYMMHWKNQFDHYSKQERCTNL
Protocol: The inhibitory activities of the tested compounds against cholinesterases were evaluated by Ellman’s method. AChE was obtained from electric eel and BuChE from equine serum. Donepezil and rivastigmine were used as reference compounds. […]. Inhibitory activities of the tested compounds against cholinesterases were measured using a spectrophotometric method modified for 96-well microplates as described recently.
[…]. First, all compounds were screened at the concentration of 10 μM. The changes in absorbance were measured at 412 nm, using a microplate reader (EnSpire Multimode; PerkinElmer, Waltham, MA, USA). Then, the percent of inhibition of tested enzymes for each compound was calculated. […] Each concentration was measured in triplicate. All calculations were made using nonlinear regression GraphPad Prism 5 (GraphPad Software, San Diego, CA, USA).

BuChE from equine serum [2] = target: T3, BuChE from equine serum (Equus caballus, UniProt P81908); assay: eqBuChE inhibition, Ellman's method; format: biochemical; settings: BuChE from equine serum; read-out: eqBuChE IC50 Mean ± SEM
T3 construct: AChE was obtained from electric eel and BuChE from equine serum; purchased Sigma Aldrich; host or cells: equine serum (natural source)
T3 sequence (P81908 whole entry): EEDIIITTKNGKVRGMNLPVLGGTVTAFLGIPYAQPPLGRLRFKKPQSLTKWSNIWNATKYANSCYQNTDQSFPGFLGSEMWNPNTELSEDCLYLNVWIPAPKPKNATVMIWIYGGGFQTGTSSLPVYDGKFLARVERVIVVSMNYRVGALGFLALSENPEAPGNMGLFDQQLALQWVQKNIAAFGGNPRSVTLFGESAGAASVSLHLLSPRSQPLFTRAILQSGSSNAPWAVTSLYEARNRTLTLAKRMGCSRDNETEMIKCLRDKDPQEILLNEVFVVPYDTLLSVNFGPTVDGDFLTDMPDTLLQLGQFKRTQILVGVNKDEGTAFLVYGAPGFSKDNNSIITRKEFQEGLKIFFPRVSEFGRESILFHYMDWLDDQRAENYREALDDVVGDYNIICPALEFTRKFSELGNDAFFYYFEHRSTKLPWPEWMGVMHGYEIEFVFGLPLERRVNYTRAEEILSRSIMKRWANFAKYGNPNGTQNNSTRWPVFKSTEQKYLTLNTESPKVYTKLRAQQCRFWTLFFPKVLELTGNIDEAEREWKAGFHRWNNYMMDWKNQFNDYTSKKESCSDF
Protocol: The inhibitory activities of the tested compounds against cholinesterases were evaluated by Ellman’s method. AChE was obtained from electric eel and BuChE from equine serum. […] Inhibitory activities of the tested compounds against cholinesterases were measured using a spectrophotometric method modified for 96-well microplates as described recently.
First, all compounds were screened at the concentration of 10 μM. […] Then, the percent of inhibition of tested enzymes for each compound was calculated. […] Each concentration was measured in triplicate. All calculations were made using nonlinear regression GraphPad Prism 5 (GraphPad Software, San Diego, CA, USA).

AChE from electric eel [3] = target: T2, AChE from electric eel; settings: at 10 μM; cited from earlier work
BuChE from equine serum [4] = target: T3, BuChE from equine serum; settings: cited from earlier work
[5] = target: T4, human histamine H3 receptor (Homo sapiens, UniProt Q9Y5N1); settings: cited from earlier work; for Ki: read-out: hH3R Ki Mean ± SD [CI 95%], [3H]Nα-methylhistamine, HEK293 cells stably expressing human H3R
T4 construct: expressed in transfected cells; host or cells: HEK293
T4 sequence (Q9Y5N1 whole entry): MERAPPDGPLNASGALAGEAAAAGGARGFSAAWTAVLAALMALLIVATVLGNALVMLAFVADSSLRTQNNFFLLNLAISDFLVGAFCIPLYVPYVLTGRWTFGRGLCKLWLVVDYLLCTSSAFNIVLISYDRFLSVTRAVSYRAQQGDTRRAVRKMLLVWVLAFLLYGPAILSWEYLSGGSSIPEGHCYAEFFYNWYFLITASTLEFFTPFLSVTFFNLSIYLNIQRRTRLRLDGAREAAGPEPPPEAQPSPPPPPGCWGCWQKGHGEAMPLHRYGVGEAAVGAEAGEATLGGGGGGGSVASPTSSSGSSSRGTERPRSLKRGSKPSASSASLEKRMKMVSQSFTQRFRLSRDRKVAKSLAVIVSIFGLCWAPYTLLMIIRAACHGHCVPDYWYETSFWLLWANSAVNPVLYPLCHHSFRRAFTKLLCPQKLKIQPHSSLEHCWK

[6] = target: T4, human histamine H3 receptor; assay: hH3R radioligand binding assay ([3H]Nα-methylhistamine)
Protocol: Affinity to human histamine H3 receptor stably expressed in HEK293 cells was evaluated in a radioligand binding assay with N^α-methylhistamine according to the previous procedure. […] The bound radioligand was separated from the free radioligand by filtration through GF/B filters (pretreated with 0.3% (m/v) polyethylenimine) using Inotech cell harvester (Dottikin, Switzerland). Unbound radioligand was removed by three washing steps with ice-cold water. The radioactivity was determined in a liquid scintillation counter (Perkin Elmer Trilux Betacounter, Germany). Scintillation data corrected for non-specific binding were analyzed using GraphPad Prism (V6.01, San Diego, CA, USA) software. Ki values were calculated from IC50 values (from at least three experiments, performed in duplicates) according to the Cheng–Prusoff equation [29].

Row | SMILES | inhibition at 1 µM (human MAO B) [%] | inhibition at 10 µM (AChE from electric eel [1]) [%] | IC50 (BuChE from equine serum [2]) [nM] | other results
1 | c1ccc(-c2ccc(OCCCCCN3CCCCC3)cc2)cc1 [Compound 6] | 50 | 24 | 2160 ± 30 | 
2 | CC1CCN(CCCCCOc2ccc(-c3ccccc3)cc2)CC1 [Compound 3] | 36 |  |  | eeAChE % Inh. (AChE from electric eel [3]): (42% ± 1) ^i; IC50 (BuChE from equine serum [4]; read-out: eqBuChE IC50): 851 nM; IC50 (BuChE from equine serum [4]; read-out: eqBuChE IC50 Mean ± SEM): 850 ± 20 nM
3 | CNCCc1cnc[nH]1 [[^3H]N^α-methylhistamine, reference compound] |  |  |  | Kd ([5]; hH3R stably expressed in HEK293 cells, read-out: KD of radioligand at hH3R): 3.08 nM
4 | CC1CCN(CCCCCCOc2cccc(-c3ccccc3)c2)CC1 [Compound 17] | 5 | 48 | 1490 ± 40 | Ki [5]: 172 ± 73 nM
5 | Clc1ccc(CCCOCCCN2CCCCC2)cc1 [Pitolisant, reference compound] | 2 |  |  | 
6 | CC1CCCN(CCCCCOc2cccc(-c3ccccc3)c2)C1 (centres unmarked) [Compound 12, 1-(5-([1,1′-Biphenyl]-3-yloxy)pentyl)-3-methylpiperidine Hydrogen Oxalate] | 5 | 27 | 680 ± 10 | Ki [6]: 45 ± 13.4 nM
7 | c1ccc(-c2cccc(OCCCCCCN3CCCCCC3)c2)cc1 [Compound 21] | 43 | > 50 | 870 | IC50 (AChE from electric eel [1]; AChE from electric eel, read-out: eeAChE IC50 Mean ± SEM): 3860 ± 80 nM; Ki [5]: 19 ± 5.5 nM
8 | CC1CCCN(CCCCCOc2ccc(-c3ccccc3)cc2)C1 (centres unmarked) [Compound 11, 1-(5-([1,1′-Biphenyl]-4-yloxy)pentyl)-3-methylpiperidine Hydrogen Oxalate] | 28 | 45 | 910 ± 10 | Ki ([6]; [3H]Nα-methylhistamine, HEK293 cells stably expressing human H3R, read-out: hH3R Ki Mean ± SD [CI 95%]): 27.3 ± 15.1 nM
9 | c1ccc(-c2ccccc2OCCCCCCN2CCCCC2)cc1 [Compound 10, 1-(6-[1,1′-Biphenyl]-2-yloxy)hexyl)piperidine Hydrogen Oxalate] | 40 | 8 | 1280 ± 20 | Ki [6]: 221 nM
10 | c1ccc(-c2cccc(OCCCCCCN3CCCCC3)c2)cc1 [Compound 9] | 16 | 35 | 1780 ± 80 | Ki [5]: 149 ± 108 nM
11 | CC1CCN(CCCCCCOc2ccccc2-c2ccccc2)CC1 [Compound 18, 1-(6-([1,1′-Biphenyl]-2-yloxy)hexyl)-4-methylpiperidine Hydrogen Oxalate] | 24 | 20 | 1480 ± 40 | Ki [6]: 561 nM
